Assay results published in PMC12723682, “Ligand-Directed Self-Assembling Chimeras for Targeted Protein O‑GlcNAcylation” (ACS Chemical Biology, 2025).

Tests used:
[1] = molecular target: T1, O-GlcNAc transferase (OGT) (Homo sapiens, UniProt O15294); assay: SPR steady-state affinity on immobilized OGT; also in-gel covalent labelling of purified OGT, competed by OSMI-4; type: binding
T1 sequence (O15294 2-1046): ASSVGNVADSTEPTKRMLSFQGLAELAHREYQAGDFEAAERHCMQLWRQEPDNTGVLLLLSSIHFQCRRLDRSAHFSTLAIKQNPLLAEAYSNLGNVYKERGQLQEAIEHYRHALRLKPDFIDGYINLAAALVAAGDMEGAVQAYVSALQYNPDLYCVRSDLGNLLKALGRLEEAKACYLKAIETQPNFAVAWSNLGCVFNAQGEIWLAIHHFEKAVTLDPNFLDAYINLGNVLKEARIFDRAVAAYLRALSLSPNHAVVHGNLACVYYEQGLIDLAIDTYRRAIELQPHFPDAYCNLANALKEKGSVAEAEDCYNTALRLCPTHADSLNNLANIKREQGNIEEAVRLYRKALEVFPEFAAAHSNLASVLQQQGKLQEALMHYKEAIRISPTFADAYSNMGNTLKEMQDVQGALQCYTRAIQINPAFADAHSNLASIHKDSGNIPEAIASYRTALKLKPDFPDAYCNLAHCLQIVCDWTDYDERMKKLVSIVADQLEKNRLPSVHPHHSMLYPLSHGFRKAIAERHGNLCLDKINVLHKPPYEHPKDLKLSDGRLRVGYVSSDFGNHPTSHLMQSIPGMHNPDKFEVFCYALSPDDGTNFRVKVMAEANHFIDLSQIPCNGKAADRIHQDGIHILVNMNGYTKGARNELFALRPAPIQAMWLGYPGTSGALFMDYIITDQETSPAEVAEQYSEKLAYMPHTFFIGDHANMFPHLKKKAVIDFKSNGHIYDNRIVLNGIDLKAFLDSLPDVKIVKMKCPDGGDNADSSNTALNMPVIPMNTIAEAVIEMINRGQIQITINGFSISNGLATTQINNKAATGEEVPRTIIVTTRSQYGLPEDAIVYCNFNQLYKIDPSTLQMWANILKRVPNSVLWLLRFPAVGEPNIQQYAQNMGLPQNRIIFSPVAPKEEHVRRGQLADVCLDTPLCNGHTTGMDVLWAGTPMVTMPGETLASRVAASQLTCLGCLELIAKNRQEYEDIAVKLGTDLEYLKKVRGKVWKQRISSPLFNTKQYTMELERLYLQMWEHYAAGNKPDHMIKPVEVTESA

[2] = molecular target: T1, O-GlcNAc transferase (OGT); assay: SPR, confirmed by MST; also in-gel covalent labelling of purified OGT, competed by OSMI-4; type: binding

Kd [1] | Kd [2] | Structure (SMILES)
2 µM | – | C#CCCCCC(=O)N(CC#N)S(=O)(=O)c1cc2ccc(=O)[nH]c2cc1Cl [7a]
– | 28.3 µM | C#CCCCCC(=O)N(CC#N)S(=O)(=O)c1ccc2[nH]c(=O)ccc2c1 [8a]
